Assays:
IMPα1 (human IMPα1ΔIBB) = IMPα1 (human IMPα1ΔIBB) (Homo sapiens, UniProt P52292); assay: Fluorescence polarization assay, FITC-NLS peptide vs importin α1ΔIBB
IMPα3 (human IMPα3ΔIBB) = target: T1, IMPα3 (human IMPα3ΔIBB) (Homo sapiens, UniProt O00629); assay: Fluorescence polarization assay, FITC-NLS peptide vs importin α3ΔIBB
T1 sequence (O00629 64-521 limits assumed): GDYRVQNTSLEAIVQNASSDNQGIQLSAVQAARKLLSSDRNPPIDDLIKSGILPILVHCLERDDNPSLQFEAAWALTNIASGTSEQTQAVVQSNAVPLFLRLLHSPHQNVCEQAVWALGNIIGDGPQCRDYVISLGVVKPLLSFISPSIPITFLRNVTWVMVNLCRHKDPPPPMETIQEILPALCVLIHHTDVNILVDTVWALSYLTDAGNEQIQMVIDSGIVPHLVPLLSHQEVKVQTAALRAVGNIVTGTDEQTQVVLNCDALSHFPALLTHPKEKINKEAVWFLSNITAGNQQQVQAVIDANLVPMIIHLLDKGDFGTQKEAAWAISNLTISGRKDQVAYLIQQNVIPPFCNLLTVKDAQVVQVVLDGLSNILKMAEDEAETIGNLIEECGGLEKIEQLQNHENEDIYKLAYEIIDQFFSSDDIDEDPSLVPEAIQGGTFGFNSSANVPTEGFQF

Question: What does the source list for `CC[C@H](C)[C@H](NC(=O)[C@H](CCCNC(=N)N)NC(=O)[C@H](CCCNC(=N)N)NC(=O)[C@H](CCCNC(=N)N)NC(=O)[C@H](CCCCN)NC(=O)[C@H](CCCCN)NC(=O)[C@@H](NC(=O)[C@H](CCC(=O)O)NC(=O)CCCCCNC(=S)Nc1ccc2c(c1)C(=O)OC21c2ccc(O)cc2Oc2cc(O)ccc21)[C@@H](C)O)C(=O)N[C@@H](CC(C)C)C(=O)N[C@@H](CCC(=O)O)C(N)=O` [HaHV1 UL36h NLS]?
Answer: Kd (IMPα1 (human IMPα1ΔIBB)): 0.226 µM; Kd (IMPα3 (human IMPα3ΔIBB)): 0.193 µM

Reference: PMC12474298 (Viruses, 2025)
